Values after ≈ are worked out from the molar mass of the structure shown. Like-named read-outs stand apart in the source and are kept apart here.
Assays:
MRSA (NCIM 5021) [1] = experiment: Antibacterial susceptibility test, microbroth dilution MIC; type: cell-based, methicillin-resistant Staphylococcus aureus; conditions: mean ± SD; for MIC: Staphylococcus aureus, read-out: Minimum inhibitory concentration
[2] = system: Klebsiella pneumonia (NCIM 2706); set-up: method as in Yele et al., 2020, 2021; conditions: ref Yele et al., 2020, 2021; cited from earlier work
E. coli ParE enzyme = molecular target: T1, E. coli ParE enzyme (Escherichia coli, UniProt P20083); experiment: E. coli ParE ATPase enzyme inhibition assay (ProFoldin kit, malachite green); type: biochemical; conditions: ATPase activity, mean ± SD (n = 3)
T1 construct: purchased ProFoldin, Hudson, United States
T1 sequence (P20083 whole entry): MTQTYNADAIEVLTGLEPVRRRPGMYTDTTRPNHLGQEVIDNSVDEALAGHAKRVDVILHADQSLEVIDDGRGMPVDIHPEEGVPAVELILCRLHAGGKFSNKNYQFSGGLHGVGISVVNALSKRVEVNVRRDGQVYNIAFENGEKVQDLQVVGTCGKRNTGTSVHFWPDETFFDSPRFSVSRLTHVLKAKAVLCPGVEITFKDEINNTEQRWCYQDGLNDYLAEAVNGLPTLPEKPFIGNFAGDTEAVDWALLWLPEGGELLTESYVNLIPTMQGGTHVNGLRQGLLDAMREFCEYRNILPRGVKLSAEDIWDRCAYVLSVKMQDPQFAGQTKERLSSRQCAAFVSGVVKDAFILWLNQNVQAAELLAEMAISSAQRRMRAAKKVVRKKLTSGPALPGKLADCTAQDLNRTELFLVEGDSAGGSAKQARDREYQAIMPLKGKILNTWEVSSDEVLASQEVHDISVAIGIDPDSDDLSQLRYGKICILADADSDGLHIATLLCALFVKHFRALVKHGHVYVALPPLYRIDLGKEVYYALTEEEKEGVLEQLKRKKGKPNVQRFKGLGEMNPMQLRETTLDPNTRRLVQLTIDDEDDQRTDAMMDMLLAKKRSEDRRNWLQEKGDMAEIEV
T1 sequence (P0AFI2 whole entry, further chain): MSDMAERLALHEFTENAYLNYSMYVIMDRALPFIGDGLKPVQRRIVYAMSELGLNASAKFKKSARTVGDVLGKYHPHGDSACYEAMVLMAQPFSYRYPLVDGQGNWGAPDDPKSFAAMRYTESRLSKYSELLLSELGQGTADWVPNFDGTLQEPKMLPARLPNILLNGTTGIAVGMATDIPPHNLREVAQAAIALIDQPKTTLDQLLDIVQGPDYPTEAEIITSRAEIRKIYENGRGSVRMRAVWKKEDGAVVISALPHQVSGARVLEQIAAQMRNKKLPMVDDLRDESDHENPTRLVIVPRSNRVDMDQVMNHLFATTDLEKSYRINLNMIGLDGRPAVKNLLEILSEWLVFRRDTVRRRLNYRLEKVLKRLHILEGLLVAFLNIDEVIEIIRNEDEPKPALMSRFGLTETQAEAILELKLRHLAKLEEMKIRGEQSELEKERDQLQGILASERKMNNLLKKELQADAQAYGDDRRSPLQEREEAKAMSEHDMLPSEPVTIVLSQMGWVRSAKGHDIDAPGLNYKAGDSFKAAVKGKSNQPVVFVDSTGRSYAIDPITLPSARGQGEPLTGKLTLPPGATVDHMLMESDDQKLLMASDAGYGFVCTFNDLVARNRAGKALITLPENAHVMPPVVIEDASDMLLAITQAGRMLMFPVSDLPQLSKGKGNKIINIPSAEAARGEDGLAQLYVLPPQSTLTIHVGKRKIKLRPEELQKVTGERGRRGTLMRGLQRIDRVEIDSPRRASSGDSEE
Method in brief: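 E. coli ParE ATPase activity measured as inorganic phosphate released from ATP hydrolysis in the presence of DNA. Reaction ran 1 h at 37°C, quenched with malachite green dye, absorbance read at 650 nm after 5 min. IC50 from non-linear regression against no-enzyme and no-compound controls.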

[3] = system: Bacillus subtilis (NCIM 2545); set-up: method as in Yele et al., 2020, 2021; conditions: ref Yele et al., 2020, 2021; cited from earlier work
[4] = system: Mycobacterium tuberculosis (NCIM 2984); set-up: method as in Yele et al., 2020, 2021; conditions: ref Yele et al., 2020, 2021; cited from earlier work
[5] = system: Escherichia coli (NCIM 2065); experiment: Antibacterial susceptibility test, microbroth dilution MIC; type: cell-based; conditions: E. Coli (NCIM 2065), mean ± SD; for MIC: Escherichia coli, NCIM2065, read-out: Minimum inhibitory concentration
[6] = In vitro cytotoxicity MTT assay; conditions: African green monkey, Vero cells
MRSA (NCIM 5021) [7] = experiment: Minimum bactericidal concentration (MBC); type: cell-based, methicillin-resistant Staphylococcus aureus
Protocol: (§1) MBC can be defined as the minimum concentration of a compound required to kill the bacteria over a fixed period under precise conditions. […] Colonies were counted, and colony forming unit (CFU) per milliliter was calculated.

[8] = system: Staphylococcus epidermis (NCIM 2493); set-up: method as in Yele et al., 2020, 2021; conditions: ref Yele et al., 2020, 2021; cited from earlier work
MRSA (ATCC43300) [9] = experiment: Antibacterial susceptibility test, microbroth dilution MIC; type: cell-based, methicillin-resistant Staphylococcus aureus; conditions: mean ± SD; for MIC: Staphylococcus aureus, read-out: Minimum inhibitory concentration
[10] = system: Pseudomonas aeruginosa (NCIM 2036); set-up: method as in Yele et al., 2020, 2021; conditions: ref Yele et al., 2020, 2021; cited from earlier work
[11] = system: Escherichia coli (NCIM 2567); set-up: method as in Yele et al., 2020, 2021; conditions: ref Yele et al., 2020, 2021; cited from earlier work
[12] = system: Staphylococcus aureus (NCIM 5022); set-up: method as in Yele et al., 2020, 2021; conditions: ref Yele et al., 2020, 2021; cited from earlier work
[13] = system: Escherichia coli (NCIM 2065); experiment: Minimum bactericidal concentration (MBC); type: cell-based; conditions: E. Coli (NCIM 2065); for MBC/MIC: ratio ≤2 bactericidal, ≥4 tolerance
Protocol: as §1

[14] = system: preformed E. coli biofilm (NCIM 2065); experiment: E. coli antibiofilm activity (crystal violet); type: cell-based, Escherichia coli; conditions: 10× MIC, 24 h
[15] = system: Salmonella typhi (NCIM 2501); set-up: method as in Yele et al., 2020, 2021; conditions: ref Yele et al., 2020, 2021; cited from earlier work
MRSA (ATCC43300) [16] = experiment: Minimum bactericidal concentration (MBC); type: cell-based, methicillin-resistant Staphylococcus aureus
Protocol: as §1

Vero cells [17] = experiment: In vitro cytotoxicity MTT assay; conditions: CC50 Vero cells / IC50
Vero cells [18] = system: Vero cells
E. coli [19] = experiment: Post antibiotic effect (PAE); type: cell-based, Escherichia coli; conditions: for Time for 1 log10: untreated control 2 h
E. coli [20] = experiment: Checkerboard synergy with FDA approved drugs; type: cell-based, Escherichia coli

Row | SMILES | Minimum inhibitory concentration (MIC) K. p [2] | Minimum inhibitory concentration (MIC) B. s [3] | Minimum inhibitory concentration (MIC) M. t [4] | Minimum inhibitory concentration [5] [µg/mL] | MBC/MIC (MRSA (NCIM 5021) [7]) | Minimum inhibitory concentration (MIC) S. e [8] | Minimum inhibitory concentration (MIC) P. a [10] | Minimum inhibitory concentration (MIC) E. c [11] | Minimum inhibitory concentration (MIC) S. a [12] | MBC/MIC [13] | Minimum inhibitory concentration (MRSA (NCIM 5021) [1]) [µg/mL] | IC50 against E. coli ParE enzyme (E. coli ParE enzyme) [µg/mL] | Minimum inhibitory concentration (MIC) S. t [15] | MBC (MRSA (NCIM 5021) [7]) [µg/mL] | MBC (MRSA (ATCC43300) [16]) [µg/mL] | MBC/MIC (MRSA (ATCC43300) [16]) | Minimum inhibitory concentration (MRSA (ATCC43300) [9]) [µg/mL] | MBC [13] [µg/mL] | also measured
1 | O=C(CSc1nc2ccccc2s1)Nc1ccc(C(=O)O)cc1[N+](=O)[O-] [Compound 25] | 1.86 | 1.72 | 5.17 | 0.72 ± 0.05 (≈ 1.85 µM) | 3 | 0.79 | 2.60 | 3.86 | 0.85 | 3 |  |  |  |  |  |  |  |  | MIC (MRSA (NCIM 5021) [1]): 0.86 ± 0.13 µg/mL (≈ 2.21 µM); IC50 (E. coli ParE enzyme; read-out: IC50 against E. coli ParE enzyme (converted)): 719 nM; MIC [5]: 0.72 µg/mL (≈ 1.85 µM); CC50 at 48 h [6]: 194 µg/mL (≈ 498 µM); MBC (MRSA (NCIM 5021) [7]; Staphylococcus aureus, read-out: MBC): 8.37 ± 0.17 µg/mL (≈ 21.5 µM); MIC (MRSA (ATCC43300) [9]): 1.11 ± 0.12 µg/mL (≈ 2.85 µM); MBC ([13]; Escherichia coli, NCIM2065, read-out: MBC): 7.09 ± 0.02 µg/mL (≈ 18.2 µM)
2 | CC1(C)S[C@@H]2[C@H](NC(=O)[C@H](N)c3ccccc3)C(=O)N2[C@H]1C(=O)O [ampicillin] |  |  |  |  |  |  |  |  |  |  |  |  |  |  |  |  |  |  | reduction in biofilm [14]: 63%
3 | O=C(COc1ccccc1NC(=O)CCl)Nc1ccccc1 [Compound 9] | 3.81 | 4.42 | 8.65 | 1.64 ± 0.10 (≈ 5.14 µM) | 3 | 0.98 | 3.35 | 4.25 | 1.52 | 2 | 1.71 ± 0.16 (≈ 5.36 µM) | 2.80 (≈ 8.78 µM) | 2.35 | 4.70 ± 0.41 (≈ 14.7 µM) | 6.29 ± 0.08 (≈ 19.7 µM) | 4 | 1.75 ± 0.21 (≈ 5.49 µM) | 3.68 ± 0.29 (≈ 11.5 µM) | 
4 | O=C(COc1ccccc1NC(=O)CCl)Nc1ccc(C(=O)O)cc1 [Compound 3] | 0.75 | 6.30 | 2.31 | 1.81 ± 0.15 (≈ 4.99 µM) | 1 | 3.04 | 0.67 | 0.82 | 4.23 | 1 | 1.84 ± 0.13 (≈ 5.07 µM) | 0.95 ± 0.09 (≈ 2.62 µM) | 1.52 | 1.84 ± 0.13 (≈ 5.07 µM) | 1.79 ± 0.21 (≈ 4.93 µM) | 1 | 1.79 ± 0.21 (≈ 4.93 µM) | 1.75 ± 0.09 (≈ 4.82 µM) | SI (CC50/IC50) (Vero cells [17]): 188.2886; CC50 (Vero cells [18]): 178.8742 µg/mL (≈ 493 µM)
5 | Cc1ccc(C(=O)NNC(=O)COc2ccc3ccccc3c2)cc1 [Compound 22] | 0.81 | 3.63 | 0.89 | 0.89 ± 0.01 (≈ 2.66 µM) | 1 | 1.04 | 0.82 | 1.23 | 1.16 | 1 | 0.90 ± 0.04 (≈ 2.69 µM) | 1.01 (≈ 3.02 µM) | 0.77 | 0.90 ± 0.04 (≈ 2.69 µM) | 0.76 ± 0.06 (≈ 2.27 µM) | 1 | 0.76 ± 0.06 (≈ 2.27 µM) | 0.89 ± 0.01 (≈ 2.66 µM) | 
6 | O=C(O)c1cn(C2CC2)c2cc(N3CCNCC3)c(F)cc2c1=O [Ciprofloxacin] | 0.63 | 0.81 | 0.60 |  |  | 0.74 | 0.67 | 0.97 | 0.68 |  |  |  |  |  |  |  |  |  | MIC (MRSA (NCIM 5021) [1]): 0.67 ± 0.02 µg/mL (≈ 2.02 µM); reduction in biofilm [14]: 86%; MIC [5]: 0.62 ± 0.015 µg/mL (≈ 1.87 µM); PAE = T - C (E. coli [19]; 1 × mic): 1 h; Time for 1 log10 (E. coli [19]; 1 × mic): 3 h; PAE = T - C (E. coli [19]; 10 × mic): 2 h; Time for 1 log10 (E. coli [19]; 10 × mic): 4 h; MIC (MRSA (ATCC43300) [9]): 0.7 ± 0.03 µg/mL (≈ 2.11 µM); FIC B (E. coli [20]; FIC of the drug in combination with compound 5): 0.1556; FIC B (E. coli [20]; FIC of the drug in combination with compound 21): 0.1589; Inference (E. coli [20]; drug combined with compound 5): Synergistic (synergistic when the ΣFICs is ≤ 0.5); ΣFIC A + FIC B (E. coli [20]; drug combined with compound 5): 0.3162; Inference (E. coli [20]; drug combined with compound 21): Synergistic (synergistic when the ΣFICs is ≤ 0.5); ΣFIC A + FIC B (E. coli [20]; drug combined with compound 21): 0.3614
7 | Cc1ccc(C(=O)NNC(=O)COc2ccccc2NC(=O)CCl)cc1 [Compound 12] | 0.67 | 3.72 | 3.21 | 0.86 ± 0.03 (≈ 2.29 µM) | 2 | 2.35 | 1.45 | 1.26 | 3.12 | 1 | 2.65 ± 0.46 (≈ 7.05 µM) | 2.34 (≈ 6.23 µM) | 1.98 | 4.4 ± 0.15 (≈ 11.7 µM) | 0.96 ± 0.14 (≈ 2.55 µM) | 1 | 0.96 ± 0.14 (≈ 2.55 µM) | 0.86 ± 0.03 (≈ 2.29 µM) | 

From article PMC8247773, “Benzohydrazide and Phenylacetamide Scaffolds: New Putative ParE Inhibitors” (Frontiers in Bioengineering and Biotechnology, 2021)
